# Biological target: T1, human renin (Homo sapiens, UniProt P00797)
# T1 construct: added to human plasma (75 μl) containing EDTA; from tissue; host or cells: human plasma
# T1 sequence (P00797 67-406): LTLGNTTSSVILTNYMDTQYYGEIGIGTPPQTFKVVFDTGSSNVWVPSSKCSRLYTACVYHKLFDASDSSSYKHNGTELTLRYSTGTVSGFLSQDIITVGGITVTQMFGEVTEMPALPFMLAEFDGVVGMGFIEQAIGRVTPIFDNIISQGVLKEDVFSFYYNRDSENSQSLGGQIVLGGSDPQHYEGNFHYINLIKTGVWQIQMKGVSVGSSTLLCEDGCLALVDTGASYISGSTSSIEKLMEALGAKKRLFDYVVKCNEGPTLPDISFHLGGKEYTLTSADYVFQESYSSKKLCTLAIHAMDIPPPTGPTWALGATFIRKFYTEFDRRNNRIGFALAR
# Test: plasma renin assay (radioimmunoassay of angiotensin-I released in human plasma)
# Assay type: biochemical
# Conditions: human renin and human renin substrate in human plasma, 37° C., pH 6.9, angiotensin-I by radioimmunoassay; read-out: IC50 (the molar concentration required to cause 50% inhibition), renin inhibitory activity
# Description: It is based on the measurement, by radiommunoassay, of Angiotensin-I released from human renin substrate by human renin in human plasma. The inhibitor is dissolved in 0.01N HCl (10 μl) and added to human plasma (75 μl) containing EDTA, and angiotensin-I antibody ([…]) in 3M-Tris.HCl buffer (pH 6.9).
# Free and bound ligand are separated by the addition of dextran-coated charcoal, and the amount of bound radio-ligand determined in a gamma counter.
row,Structure (SMILES),IC50
1,CC(C)(C)OC(=O)N[C@@H](Cc1ccccc1)C(=O)N[C@@H](Cc1c[nH]cn1)C(=O)N[C@@H](CC1CCCCC1)[C@@H](O)CS(=O)(=O)CC(=O)NC1CCN(Cc2ccccc2)CC1 [1-benzyl-4-[2-[X-sulfonyl]acetamido]piperidine],34 nM
2,"CN1CCN(C(=O)CSC[C@H](O)[C@H](CC2CCCCC2)NC(=O)[C@H](Cc2cnc[nH]2)NC(=O)[C@H](Cc2ccccc2)NC(=O)OC(C)(C)C)CC1 [4-[2-[X-thio]acetyl]-1-methylpiperazine, 4-[2-[[(2R,3S)-3-(Boc-L-phenylalanyl-L-histidylamino)-4-cyclohexyl-2-hydroxy-1-butyl]thio]acetyl]-1-methylpiperazine]",29 nM
3,"CC(C)(C)OC(=O)N[C@@H](Cc1ccccc1)C(=O)N[C@@H](Cc1cnc[nH]1)C(=O)N[C@@H](CC1CCCCC1)[C@@H](O)C[S+]([O-])CC(=O)NCCN1CCOCC1 (stereo partly drawn) [4-[[(2R,3S)-3-(Boc-L-phenylalanyl-L-histidylamino)-4-cyclohexyl-2-hydroxy-1-butyl]-sulfinyl]acetyl]amino]ethyl]morpholine]",19 nM
4,CC(C)(C)OC(=O)N[C@@H](Cc1ccccc1)C(=O)N[C@@H](Cc1cnc[nH]1)C(=O)N[C@@H](CC1CCCCC1)[C@@H](O)CSCC(=O)NCCN1CCOCC1 [4-[2-[2-[X-thio]acetamido]ethyl]morpholine],40 nM
5,CC(C)CC(C(=O)NCCN1CCOCC1)[S+]([O-])C[C@H](O)[C@H](CC1CCCCC1)NC(=O)[C@H](Cc1cnc[nH]1)NC(=O)[C@H](Cc1ccccc1)NC(=O)OC(C)(C)C (stereo partly shown) [4-[2-[[(2 ---- RS )-2-[X-sulfinyl]-4-methyl-pentanoyl]amino]ethyl]morpholine],88 nM
6,CC(C)CC(C(=O)NCCN1CCOCC1)S(=O)(=O)C[C@H](O)[C@H](CC1CCCCC1)NC(=O)[C@H](Cc1c[nH]cn1)NC(=O)[C@H](Cc1ccccc1)NC(=O)OC(C)(C)C (stereo partly shown) [4-[2-[[2 ---- RS )-2 [X-sulfonyl]-4-methyl-pentanoyl]amino]ethyl]morpholine],77 nM
7,CC(C)(C)OC(=O)N[C@@H](Cc1ccccc1)C(=O)N[C@@H](Cc1cnc[nH]1)C(=O)N[C@@H](CC1CCCCC1)[C@@H](O)CS(=O)(=O)CC(=O)NCCN1CCOCC1,9.4 nM
8,CN1CCN(C(=O)CS(=O)(=O)C[C@H](O)[C@H](CC2CCCCC2)NC(=O)[C@H](Cc2cnc[nH]2)NC(=O)[C@H](Cc2ccccc2)NC(=O)OC(C)(C)C)CC1 [4-[2-[X-sulfonyl]acetyl]-1-methylpiperazine],20 nM
9,"CCOC(=O)CSC[C@H](O)[C@H](CC1CCCCC1)NC(=O)[C@H](Cc1cnc[nH]1)NC(=O)[C@H](Cc1ccccc1)NC(=O)OC(C)(C)C [ethyl 2-[X-thio]acetate, ethyl 2-[[(2R,3S) 3-(Boc-L-phenylalanyl-L-histidylamino)-4-cyclohexyl-2-hydroxy-1-butyl]thio]acetate]",58 nM
10,CC(C)(C)OC(=O)N[C@@H](Cc1ccccc1)C(=O)N[C@@H](Cc1c[nH]cn1)C(=O)N[C@@H](CC1CCCCC1)[C@@H](O)CSCC(=O)NCc1ccncc1 [4-[[2-[X-thio]acetamido]methyl]pyridine],92 nM
11,CC(C)(C)OC(=O)NC(Cc1ccccc1)C(=O)NC(Cc1cnc[nH]1)C(=O)NC(CC1CCCCC1)C(O)CSCC(=O)NC1CN2CCC1CC2 (stereo not shown) [3-[2-[X-thio]acetamido}quinuclidine],29 nM
12,"CC(C)(C)OC(=O)N[C@@H](Cc1ccccc1)C(=O)N[C@@H](Cc1c[nH]cn1)C(=O)N[C@@H](CC1CCCCC1)[C@@H](O)CSCC(=O)O [2-[X-thio]acetic acid, 2-[[(2R,3S)-3-(Boc-L-phenylalanyl-L-histidylamino)-4-cyclohexyl-2-hydroxy-1-butyl]thio]acetic acid]",904 nM
13,CC(C)(C)OC(=O)N[C@@H](Cc1ccccc1)C(=O)N[C@@H](Cc1c[nH]cn1)C(=O)N[C@@H](CC1CCCCC1)[C@@H](O)CS(=O)(=O)CC(=O)NC1C[N+]2([O-])CCC1CC2 (stereo partly shown) [3-[2-[X-sulfonyl]acetamido]quinuclidine-N-oxide],4.2 nM
14,"CNCCN(C)C(=O)CSC[C@H](O)[C@H](CC1CCCCC1)NC(=O)[C@H](Cc1c[nH]cn1)NC(=O)[C@H](Cc1ccccc1)NC(=O)OC(C)(C)C [N-[2-[[(2R,3S)-3-(Boc-L-phenylalanyl-L-histidylamino)-4-cyclohexyl-2-hydroxy-1-butyl]thio]acetyl]-N,N'-dimethylethylenediamine]",161 nM
15,"CC(C)CC(SC[C@H](O)[C@H](CC1CCCCC1)NC(=O)[C@H](Cc1c[nH]cn1)NC(=O)[C@H](Cc1ccccc1)NC(=O)OC(C)(C)C)C(=O)NCCN1CCOCC1 (mixture of isomers) [4-[2-[[(2RS)-2-[[(2R,3S)-3-(Boc-L-phenylalanyl-L-histidylamino)-4-cyclohexyl-2-hydroxy-1-butyl]thio]methylpentanoyl]-4-methylpentanoyl]amino]ethyl]morpholine]",73 nM
16,"CC(C)(C)S(=O)(=O)C[C@@H](Cc1ccccc1)C(=O)N[C@@H](Cc1c[nH]cn1)C(=O)N[C@@H](CC1CCCCC1)[C@@H](O)CS(=O)(=O)CC(=O)NCCN1CCOCC1 [4-[2-[2-[[(2R,3S)3-[N^α -[(S)-2-[(t-Butylsulfonyl)-methyl]-3-phenylpropionyl]-L-histidylamino]-4-cyclohexyl-2-hydroxy-1-butyl]sulfonyl]-acetamido]ethyl]morpholine]",7.2 nM
